Reference: patent US20100029682A1, “NOVEL CHROMENE AND THIOCHROMENE CARBOXAMIDE DERIVATIVES, METHODS FOR PREPARING SAME AND THERAPEUTIC APPLICATIONS OF SAME” (priority 2006, published 2010)
Counter-ions that a name gives are not always drawn.

Tests used:
dopamine D3 receptor = molecular target: T1, dopamine D3 receptor (Homo sapiens, UniProt P35462); assay: inhibition of spiperone[3H] binding in CHO cells, dopamine D3 receptor; details: read-out: pKi D3 (converted)
T1 construct: expressed in transfected cells
Method: (§1) The activity of derivatives of formula 1 as DRD3 ligands, modulators of the activity of DRD3 according to the invention, was evaluated on cells expressing human recombinant DRD3. […] These same compounds show an apparent affinity for the dopamine D2 receptor that is 100 to 500 times weaker. These same compounds have an affinity for the α1 adrenergic receptor that is 20 to 500 times weaker than that for the D3 receptor. The compounds of formula 1 are either antagonists (intrinsic activity<0.10), partial agonists (0.2<intrinsic activity<0.6) or full agonists (intrinsic activity>0.8). The biological results relative to certain compounds of formula 1 are presented in table 2 at the end of the description.

dopamine D2 receptor = molecular target: T2, dopamine D2 receptor (Homo sapiens, UniProt P14416); assay: inhibition of spiperone[3H] binding in CHO cells, dopamine D2 receptor; details: read-out: pKi D2 (converted)
T2 construct: expressed in transfected cells
Method: as §1

α1-adrenergic receptor = assay: inhibition of prazocine[3H] binding in rat brain tissue
Method: as §1

human recombinant DRD3 = molecular target: T3, human recombinant DRD3 (Homo sapiens, UniProt P35462); assay: intrinsic activity on cells expressing human recombinant DRD3; assay type: cell-based; details: antagonists <0.10, partial agonists 0.2-0.6, full agonists >0.8
T3 construct: expressed in transfected cells
Source text: As used above, the term “D3 receptor partial agonist” denotes a compound that forms a complex with DRD3 and that acts as a combined agonist-antagonist, i.e., it induces a physiological response whose intensity is less than that of the natural mediator, dopamine. In vitro, in a cell expressing DRD3, a DRD3 partial agonist produced an active response whose maximum intensity was lower than that produced by dopamine or a by a full agonist, for example quinpirole[(4aR-trans)-4,4a,5,6,7,8,8a,9 octahydro-5-propyl-1H (or 2H)-pyrazolo(3,4-g)quinoline]. A DRD3 partial agonist can also partially prevent the response produced by dopamine or by its full agonists. In vivo, a DRD3 partial agonist produces dopaminergic responses, particularly when dopamine levels are lowered, as is the case with rats with lesions caused by 6-hydroxydopamine or monkeys injected with 1 methyl-4-phenyl-1,2,3,6-tetrahydropyridine (MPTP). Moreover, a DRD3 partial agonist can act as an antagonist in vivo, particularly when DRD3 is subject to sustained dopamine stimulation.
as §1

T3 sequence (P35462 whole entry): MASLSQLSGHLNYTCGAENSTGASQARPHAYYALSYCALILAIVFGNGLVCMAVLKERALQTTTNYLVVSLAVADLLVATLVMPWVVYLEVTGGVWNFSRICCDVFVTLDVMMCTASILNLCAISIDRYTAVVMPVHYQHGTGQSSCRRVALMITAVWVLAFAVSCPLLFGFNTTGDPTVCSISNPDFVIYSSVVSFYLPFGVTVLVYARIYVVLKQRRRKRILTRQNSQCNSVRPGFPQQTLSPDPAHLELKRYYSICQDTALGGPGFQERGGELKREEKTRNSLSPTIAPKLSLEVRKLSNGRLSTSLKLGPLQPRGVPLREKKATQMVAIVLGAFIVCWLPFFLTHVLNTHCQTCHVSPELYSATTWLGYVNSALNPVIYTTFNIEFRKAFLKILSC
T1 sequence (P35462 whole entry): as above
T2 sequence (P14416 whole entry, species assumed): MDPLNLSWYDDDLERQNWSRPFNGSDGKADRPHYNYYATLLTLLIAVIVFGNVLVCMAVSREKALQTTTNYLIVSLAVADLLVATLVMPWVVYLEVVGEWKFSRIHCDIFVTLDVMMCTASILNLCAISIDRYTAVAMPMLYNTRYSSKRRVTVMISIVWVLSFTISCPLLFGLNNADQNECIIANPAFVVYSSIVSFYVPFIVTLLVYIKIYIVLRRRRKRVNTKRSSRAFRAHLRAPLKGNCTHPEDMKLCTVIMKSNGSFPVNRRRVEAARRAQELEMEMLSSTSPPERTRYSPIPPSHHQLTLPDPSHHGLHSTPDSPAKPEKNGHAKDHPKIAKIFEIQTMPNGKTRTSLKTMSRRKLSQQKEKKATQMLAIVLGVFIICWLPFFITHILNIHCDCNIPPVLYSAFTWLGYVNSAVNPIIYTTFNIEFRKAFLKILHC

| Compound | Ki (dopamine D3 receptor) [nM] | Ki (dopamine D2 receptor) [nM] | pKi α1 (α1-adrenergic receptor) | Intrinsic activity (human recombinant DRD3) | melting point [°C] |
| --- | --- | --- | --- | --- | --- |
| O=C(NCCCCN1CCN(c2cccc(C(F)(F)F)c2)CC1)C1=Cc2ccccc2OC1 [Example 16, 2H-Chromene-3-carboxylic acid {4-[4-(3-trifluoromethylphenyl)-piperazin-1-yl]-butyl}-amide] | 2.69 | 447 | 7.55 |  |  |
| O=C(NCCCCN1CCN(c2ccccc2C(F)(F)F)CC1)C1=Cc2ccccc2OC1 (as salt: HCl) [Example 17, 2H-Chromene-3 carboxylic acid {4-[4-(2-trifluoromethylphenyl)-piperazin-1-yl]-butyl}-amide] |  |  |  |  | 161 |
| N#Cc1cccc(N2CCN(CCCCNC(=O)C3=Cc4ccccc4SC3)CC2)c1 [Example 35, 2H-Thiochromene-3-carboxylic acid {4-[4-(3-cyanophenyl)-piperazin-1-yl]-butyl}-amide] | 2.4 | 3160 | 7.32 | 0.18 |  |
| COc1ccccc1N1CCN(CCCCNC(=O)C2=Cc3cc(Cl)ccc3OC2)CC1 (as salt: HCl) [Example 29, 6-Chloro-2H-chromene-3-carboxylic acid {4-[4-(2-methoxyphenyl)-piperazin-1-yl]-butyl}-amide] |  |  |  |  | 155 |
| O=C(NCCCCN1CCN(c2ccc([N+](=O)[O-])cc2)CC1)C1=Cc2ccccc2OC1 (as salt: HCl) [Example 18, 2H-Chromene 3 carboxylic acid {4-[4-(4-nitrophenyl)-piperazin-1-yl]-butyl}-amide] |  |  |  |  | 243 |
| O=C(NCCCCN1CCN(c2cccc(O)c2)CC1)C1=Cc2ccccc2SC1 [Example 41, 2H-Thiochromene-3-carboxylic acid {4-[4-(3-hydroxyphenyl)-piperazin-1-yl]-butyl}-amide] | 0.661 | 3800 | 7.08 | 0.64 |  |
| O=C(NCCCCN1CCN(c2cccc(Cl)c2Cl)CC1)C1=Cc2cc(Cl)ccc2OC1 (as salt: hydrochloride) [Example 28, 6-Chloro-2H-Chromene-3-carboxylic acid {4-[4-(2,3-dichlorophenyl)-piperazin-1-yl]-butyl}-amide] |  |  |  |  | 214 |
| N#Cc1cccc(N2CCN(CCCCNC(=O)C3=Cc4ccccc4OC3)CC2)c1 (as salt: hydrochloride) [Example 14, 2H-Chromene-3-carboxylic acid {4-[4-(3-cyanophenyl)-piperazin-1-yl]-1-butyl}-amide] |  |  |  |  | 229 |
| COc1ccccc1N1CCN(CCCCNC(=O)C2=Cc3ccccc3OC2)CC1 (as salt: hydrochloride) [Example 1, 2H-Chromene 3-carboxylic acid {4-[4-(2-methoxyphenyl)-piperazin-1-yl]-butyl}-amide] |  |  |  |  | 224 |
| CCOC(=O)c1cccc(N2CCN(CCCCNC(=O)C3=Cc4ccccc4OC3)CC2)c1 (as salt: hydrochloride) [Example 21, 3-(4-{4-[(2H-Chromene-3-carbonyl)-amino]-butyl}-piperazin-1-yl)-benzoic acid ethyl ester hydrochloride] |  |  |  |  | 229 |
| Cc1ccccc1N1CCN(CCCCNC(=O)C2=Cc3ccccc3OC2)CC1 (as salt: HCl) [Example 9, 2H Chromene-3-carboxylic acid {4-[4-(2-methylphenyl)-piperazin-1-yl]-butyl}-amide] |  |  |  |  | 187 |
| O=C(NCCCCN1CCN(c2cccc(Cl)c2Cl)CC1)C1=Cc2ccccc2OC1 [Example 2, 2H-Chromene-3-carboxylic acid {4-[4-(2,3-dichlorophenyl)-piperazin-1-yl]-butyl}-amide] | 0.813 | 123 | 7.29 |  |  |
| CCOC(=O)c1ccc(N2CCN(CCCCNC(=O)C3=Cc4ccccc4OC3)CC2)cc1 (as salt: hydrochloride) [Example 22, 4-(4-{4-[(2H-Chromene-3-carbonyl)-amino]-butyl}-piperazin-1-yl)-benzoic acid ethyl ester hydrochloride] |  |  |  |  | 237 |
| CC1(C)Sc2ccccc2C=C1C(=O)NCCCCN1CCN(c2cccc(C#N)c2)CC1 (as salt: HCl) [Example 44, 2,2-Dimethyl-2H thiochromene-3-carboxylic acid {4-[4-(3-cyanophenyl)-piperazin-1-yl]-butyl}-amide] |  |  |  |  | 155 |
| N#Cc1ccc(N2CCN(CCCCNC(=O)C3=Cc4ccccc4OC3)CC2)cc1 (as salt: HCl) [Example 13, 2H-Chromene-3-carboxylic acid {4-[4-(4-cyanophenyl)piperazin 1-yl]-butyl}-amide] |  |  |  |  | 212 |
| O=C(NCCCCN1CCN(c2ccccc2F)CC1)C1=Cc2ccccc2SC1 (as salt: HCl) [Example 33, 2H-Thiochromene-3-carboxylic acid {4-[4-(2-fluorophenyl)piperazin-1-yl]-butyl}-amide] |  |  |  |  | 212 |
| O=C(NCCCCN1CCN(c2ccccc2F)CC1)C1=Cc2cc(Cl)ccc2OC1 (as salt: HCl) [Example 30, 6-Chloro-2H-chromene-3-carboxylic acid {4-[4-(2-fluorophenyl)-piperazin-1-yl]-butyl}-amide] |  |  |  |  | 214 |
| Cc1cccc(N2CCN(CCCCNC(=O)C3=Cc4ccccc4OC3)CC2)c1C (as salt: HCl) [Example 11, 2H-Chromene-3-carboxylic acid {4-[4-(2,3-dimethylphenyl)piperazin-1-yl]-butyl}-amide] |  |  |  |  | 202 |

Further lines, results first:

| Ki (dopamine D3 receptor) [nM] | Ki (dopamine D2 receptor) [nM] | pKi α1 (α1-adrenergic receptor) | Intrinsic activity (human recombinant DRD3) | melting point [°C] | Compound |
| --- | --- | --- | --- | --- | --- |
| 0.219 | 34.7 | 6.78 | 0 |  | CS(=O)(=O)Nc1cccc(N2CCN(CCCCNC(=O)C3=Cc4cc(Cl)ccc4OC3)CC2)c1 [Example 89, 6-chloro-2H-chromene-3-carboxylic acid {4-[4-(3-mesylamino-phenyl}-piperazin-1-yl]-butyl}-amide] |
| 0.794 | 251 |  |  |  | COc1ccc2c(c1)C=C(C(=O)NCCCCN1CCN(c3cccc(Cl)c3Cl)CC1)CO2 [Example 55, 6-Methoxy-2H-chromene-3-carboxylic acid {4-[4-(2,3-dichlorophenyl)-piperazin-1-yl]-butyl}-amide] |
| 0.219 | 93.3 | 8.05 | 0.59 |  | O=C(NCCCCN1CCN(c2cccc3[nH]ccc23)CC1)C1=Cc2ccccc2OC1 [Example 102, 2H-chromene-3-carboxylic acid {4-[4-(1H-indol-4-yl)-piperazin-1-yl]-butyl}-amide] |
| 0.537 | 417 | 8.05 |  |  | COc1ccc2c(c1)C=C(C(=O)NCCCCN1CCN(c3ccccc3OC)CC1)CO2 [Example 54, 6-Methoxy-2H-chromene-3-carboxylic acid {4-[4-(2-methoxyphenyl)piperazin-1-yl]-butyl}-amide] |
| 0.676 | 141 | 7.84 | 0.26 |  | O=C(NCCCCN1CCN(c2cccc3c2OCC3)CC1)C1=Cc2ccccc2OC1 [Example 111, 2H-chromene-3-carboxylic acid {4-[4-(2,3-dihydro-benzofuran-7-yl)-piperazin-1-yl]-butyl} amide] |
|  |  |  |  | 199 | O=C(NCCCCN1CCN(c2cccc(O)c2)CC1)C1=Cc2ccccc2OC1 (as salt: HCl) [Example 53, 2H Chromene-3-carboxylic acid {4-[4-(3-hydroxyphenyl)-piperazin-1-yl]-butyl}-amide] |
| 0.603 | 132 | 7.81 |  |  | O=C(NCCCCN1CCN(c2cccc3c2OCCO3)CC1)C1=Cc2ccccc2OC1 [Example 105, 2H-chromene-3-carboxylic acid {4-[4-(2,3-dihydro-benzo[1,4]dioxin-5-yl)-piperazin-1-yl]-butyl}-amide] |
| 0.0676 | 7.59 | 8.44 | 0.81 |  | O=C(NCCCCN1CCN(c2cccc3[nH]c(=O)oc23)CC1)C1=Cc2ccccc2OC1 [Example 110, 2H-chromene-3-carboxylic acid {4-[4-(2-oxo-2,3-dihydro-benzoxazol-7-yl)-piperazin-1-yl]-butyl}-amide] |
|  |  |  |  | 165 | COc1ccc2c(c1)C=C(C(=O)NCCCCN1CCN(c3ccccc3OC)CC1)CO2 (as salt: HCl) [Example 54, 6-Methoxy-2H-chromene-3-carboxylic acid {4-[4-(2-methoxyphenyl)piperazin-1-yl]-butyl}-amide] |
|  |  |  |  | 236 | O=C(NCCCCN1CCN(c2ccc(O)cc2)CC1)C1=Cc2ccccc2OC1 (as salt: HCl) [Example 59, 2H-Chromene-3-carboxylic acid {4-[4-(4-hydroxyphenyl)-piperazin-1-yl]-butyl}-amide] |
